Assay results taken from US20090074766A1, “Methods of inhibiting HIV-2 infection” (priority 2007, published 2009).

Tests used:
[1] = tested on: reporter viruses pseudotyped with HIV-1JR-FL envelope; type: cell-based; design: CI90: unit not given beside the values; details: for CI50 / CI90: labelled 1st inhibitor with 2nd inhibitor PRO 140, envelope JRFL, equimolar (1:10 PRO 140 to zidovudine or nevirapine); for inhibition of HIV-1 pseudovirus entry: result in words, data not shown
Excerpt: HIV-1 pseudoparticles (HIV-1pp) are generated in 293T cells by transient coexpression of an HIV-1-based NL4/3luc+env− plasmid and a construct encoding HIV-1JRFL Env. The NL4/3luc+env− plasmid was obtained from the NIH AIDS Research and Reference Reagent Program (Cat. No. 3418), and the HIV-1JRFL Env was inserted into the pcDNA3.1 vector (Invitrogen). Briefly, 293T cells are calcium phosphate transfected with a 1:1 ratio of NL4/3luc+env− reporter vector and Env expression vector in Hepes buffer (Profection Mammalian Transfection Kit, Promega). After 16 h the transfection medium is aspirated and fresh cell culture medium (DMEM with 10% FBS, glutamine and antibiotics) is added and the incubation is continued at 37° C. for an additional 24-32 h. Cell culture supernatants are collected 48 h post-transfection and centrifuged at 1,400 rpm for 10 min to pellet cell debris. The viral supernatant is brought to a final concentration of 5% sucrose and stored aliquoted at −80° C.
U87-CD4-CCR5 cells were obtained from the NIH AIDS Research and Reference Program (Cat. No. 4035). These cells are maintained in culture medium (DMEM with 10% FBS, antibiotics and glutamine) containing 0.3 mg/ml G418 and 0.5 mg/ml puromycin. Cells are grown in T175-cm^2 flasks at 37° C. and diluted 1:5 every 3-4 days. For assay plate preparation, cells are trypsinized and seeded into wells of 96-well tissue-culture treated flat bottom opaque polystyrene plates (Perkin Elmer, Boston, Mass.) at a density of 3×10^3 cells/well. Plates are incubated for no more than 4 h at 37° C. in a humidified 5% CO2 incubator prior to their use in the HIV-1 pp susceptibility assay.
Fifty μl of diluted compound at 4× the desired final concentration are added per well. For compounds solubilized in DMSO, the 4× stock will contain 2% DMSO (such that the final DMSO concentration in the assay is always 0.5% for small molecules). Control wells receiving no compound are included on each plate. In addition, an AZT inhibition control is included in each assay. Compounds are tested individually and at a fixed mass or molar ratio over a broad range of concentrations.
A vial of frozen, aliquoted HIV-1pp is thawed in a 37° C. waterbath and then placed on wet ice. Virus is diluted in cold cell culture medium as necessary to achieve the desired final virus concentration in the HIV-1pp assay (about 10,000 relative light units (rlu) per well). 50 μl of diluted virus are added per well, bringing the final well volume to 200 μl. A no-virus control (minimum or background luminescence) and a no-compound control (maximum luminescence) are included on each plate. The plates are incubated for 72 h at 37° C. in a humidified 5% CO2 incubator followed by processing for luciferase signal (see below).
Assay medium is aspirated and 200 μl of PBS are added to each well. […] Assay plates are then frozen for at least 2 h at −80° C. followed by thawing at room temperature and vigorous mixing with an electronic pipettor. 25 μl from each well are transferred to an opaque 96-well plate (Costar #3922). Four replicates are pooled into the same well on the opaque plate. 100 μl of freshly thawed and reconstituted luciferase substrate (Luciferase Assay System, Promega—Cat. No. E1501) are added to each well of the plate with the electronic pipettor, and luminescence is detected immediately on a Dynex MLX plate reader set to medium gain.
The percent inhibition is derived as follows: [1−(luciferase activity in the presence of drug/luciferase activity in the absence of drug)]×100. IC50 values are determined by fitting the inhibition data with a non-linear, four-parameter, variable slope equation (GraphPad Prism, ver. 4.02; GraphPad Software, San Diego, Calif.). Upper and lower inhibition values are constrained to 100% and 0%, respectively for curve fitting. […]

[2] = tested on: reporter viruses pseudotyped with HIV-1SF162 envelope; type: cell-based; design: CI90: unit not given beside the values; details: labelled 1st inhibitor with 2nd inhibitor PRO 140; envelope SF162; equimolar (1:10 PRO 140 to zidovudine or nevirapine)
Excerpt: A self-inactivating (SIN) vector was derived from the pNL4-3ΔEnv-luciferase vector (Dragic et al. 1996) by deleting 507 basepairs in the U3 region of the 3′ long terminal repeat (LTR) so as to remove the TATA box and transcription factor binding sites. The human cytomegalovirus promoter was inserted upstream of the luciferase (luc) gene to enable expression of luciferase following integration.
Reporter viruses pseudotyped with HIV-1JR-FL or HIV-1SF162 envelopes were generated by cotransfection of 293T cells with the SIN vector and the appropriate pcDNA env-expressing vector as previously described (Dragic et al. 1996). […] Cultures were incubated for 72 h at 37° C. in DMEM containing 10% fetal bovine serum, 1 mg/mL puromycin, 0.3 mg/mL geneticin, antibiotics, and 0.5% DMSO. Luciferase activity (relative light units or RLU) was measured using BrightGlo reagent (Promega, Madison, Wis.) according to the manufacturer's instructions. Percent inhibition was calculated as: (1−RLU in the presence of inhibitor/RLU in the absence of inhibitor)×100.
Experimental design and data analysis were based on the combination index (CI) method (Chou et al. 1991; Chou et al. 1984). Compounds were tested individually and in combination at a fixed molar ratio over a range of serial dilutions. […] The mutually exclusive CI formula was used for combinations of CCR5 inhibitors, while the mutually non-exclusive formula was utilized for combinations of inhibitors to distinct targets (Chou et al. 1991). Each test was conducted 4-12 times. Synergy, additivity and antagonism are indicated by CI<1, CI=1 and CI>1, respectively.

HIV-1 = details: treatment period of 10-14 days, dose-dependent; cited from earlier work
[3] = tested on: HIV-1JR-FL envelope-mediated membrane fusion (HeLa-EnvJRFL and CEM NKR-CCR5 cells); experiment: cell-based; details: 1st inhibitor alone (Table 13)
Experimental: (§1) The HIV-1 RET assay has been described in detail previously (Litwin et al., 1996). Briefly, fluorescein octadecyl ester (F18; Molecular Probes, Eugene, Oreg.; 5 mg/ml in ethanol), was diluted 1:800 in DMEM labeling medium (DMEM; Invitrogen, Carlsbad, Calif.) with 10% fetal bovine serum (FBS; HyClone, Logan, Utah) and adjusted to an A506 of 0.34±10%. Octadecyl rhodamine B chloride (R18; Molecular Probes; 10 mg/ml in ethanol) was diluted 1:2050 in labeling medium and adjusted to an A565 of 0.52±10%. Both dyes were further diluted 2-fold by addition to cells in T75-cm^2 flasks. HeLa-EnvJRFL and CEM NKR-CCR5 cells were incubated overnight in F18- and R18-containing culture medium, respectively. The following day, medium from HeLa-EnvJRFL cells was removed and 10 ml of 0.5 mM EDTA was added and incubated at 37° C. for 5 min. EDTA was removed and the flask was returned to the incubator for another 5 min followed by striking of the flask to dislodge cells. […] Suspension CEM NKR-CCR5 cells were added directly to a separate 50-ml conical centrifuge tube. Both cell lines were centrifuged at 300×g for 5 min. The supernatant was discarded and cells were resuspended in 10 ml of PBS-/15% FBS. The centrifugation/wash step was repeated twice, after which the cells were counted and concentrations adjusted to 1.5×10^6 cells/ml. Ten μl of each cell type (15,000 cells) were seeded into wells of a 384-well plate. Inhibitor compounds were added immediately thereafter to bring the final well volume to 40 μl, and the plates were incubated for 4 h at 37° C. Compounds were tested individually and in combination at a fixed molar ratio or mass ratio over a range of serial dilutions. The plates were then read on a fluorescence plate reader (Victor^2, Perkin Elmer, Boston, Mass.) using the excitation/emission filter combinations shown in Table 6.
(§2) The “% RET” was calculated according to the following formula after subtraction of background (blank) readings: […]
(§3) The “% Inhibition” was calculated according to the following formula: […]
(§4) Fifty percent inhibition (IC50) values were determined by fitting the inhibition data with a non-linear, four-parameter, variable slope equation (GraphPad Prism, 4.02; GraphPad Software, San Diego, Calif.). Upper and lower inhibition values were constrained to 100% and 0%, respectively for curve fitting.
(§5) For testing, small molecule compounds were solubilized in dimethylsulfoxide (DMSO) to 10 mM and then diluted in DMSO to 200× the final concentration to be utilized in the antiviral assay. Serial dilutions of small molecules were conducted in DMSO. Subsequent dilutions were conducted in medium to achieve a final DMSO concentration in the assay of 0.5%. Peptides and mAbs were diluted in PBS in the absence of DMSO.
(§6) HeLa cells were engineered to express HIV-1 gp120/gp41 from the macrophage-tropic primary isolate JRFL as described (HeLa-EnvJRFL; Litwin et al., 1996). Briefly, the HIV-1LAI Env gene was excised from the plasmid pMA243 (Dragic et al., 1992) and the HIV-1JRFL Env gene was inserted. The HIV-1JRFL Env gene was amplified from the plasmid pUCFL112-1 (Koyanagi et al., 1987). The resulting plasmid, designated JR-FL-pMA243, was sequenced by standard methods and transfected into HeLa cells using lipofectin (Gibco BRL/Invitrogen, Carlsbad, Calif.). HeLa-EnvJRFL transfectants were selected in methotrexate (Sigma, St. Louis, Mo.) and cloned twice by limiting dilution. The transduced human T cell leukemia line CEM NKR-CCR5 cells were obtained from the NIH AIDS Research and Reference Program (Cat. No. 458).
(§7) The HIV-1 RET assay has been described in detail previously (Litwin et al., 1996). Briefly, fluorescein octadecyl ester (F18; Molecular Probes, Eugene, Oreg.; 5 mg/ml in ethanol), was diluted 1:800 in DMEM labeling medium (DMEM; Invitrogen, Carlsbad, Calif.) with 10% fetal bovine serum (FBS; HyClone, Logan, Utah) and adjusted to an A506 of 0.34±10%.

[4] = in vivo, cited from earlier work
[5] = single administration of TAK-652 solution (Baba et al., 2005); cited from earlier work
[6] = biological target: HIV-1JR-FL envelope-mediated membrane fusion (HeLa-EnvJRFL and CEM NKR-CCR5 cells) (Homo sapiens, UniProt P51681); experiment: cell-based; details: 2D7 in combination with the labelled inhibitor, 1:1 molar ratio
Sequence of HIV-1JR-FL envelope-mediated membrane fusion (HeLa-EnvJRFL and CEM NKR-CCR5 cells) (Homo sapiens, UniProt P51681) (P51681 whole entry, the tested form may be a part): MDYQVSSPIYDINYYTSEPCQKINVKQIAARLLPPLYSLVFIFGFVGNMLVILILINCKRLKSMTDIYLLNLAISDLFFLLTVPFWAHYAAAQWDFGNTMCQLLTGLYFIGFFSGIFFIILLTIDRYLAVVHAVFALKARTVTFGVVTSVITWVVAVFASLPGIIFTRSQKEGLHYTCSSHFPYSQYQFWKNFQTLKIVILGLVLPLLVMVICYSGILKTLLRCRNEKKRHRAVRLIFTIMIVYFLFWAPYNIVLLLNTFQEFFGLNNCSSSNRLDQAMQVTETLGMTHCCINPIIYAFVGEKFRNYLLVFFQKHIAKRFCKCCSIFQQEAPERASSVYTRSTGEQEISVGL
Experimental: as §1, §2, §3, §4, §5, §6, §7

With Cc1cn([C@H]2C[C@H](N=[N+]=[N-])[C@@H](CO)O2)c(=O)[nH]c1=O [zidovudine] the CI50 [1] was 1.1 ± 0.38, the CI90 [1] was 0.85 ± 0.26 and the CI50 [2] was 0.99 ± 0.27. The CI90 [2] was 1.0 ± 0.38.

Compound Cc1ccnc2c1NC(=O)c1cccnc1N2C1CC1 [nevirapine] has a CI50 [1] of 1.2 ± 0.38, a CI90 [1] of 0.73 ± 0.28 and a CI50 [2] of 1.2 ± 0.34. For the same compound, the CI90 [2] was 0.63 ± 0.19.

In the case of CCO/N=C(\c1ccc(Br)cc1)C1CCN(C2(C)CCN(C(=O)c3c(C)cc[n+]([O-])c3C)CC2)CC1 [SCH-C], the “mean reductions in HIV-1 RNA levels” value (HIV-1) is listed as about 1 log10.

Compound enfuvirtide has an IC50 [3] of 8.6 nM and an IC90 [3] of 66 nM.

In the case of CCCCN1C(=O)[C@@H]([C@H](O)C2CCCCC2)NC(=O)C12CCN(Cc1ccc(Oc3ccc(C(=O)O)cc3)cc1)CC2 [GW873140], the “mean reductions in HIV-1 RNA levels” value (HIV-1) is given as about 1 log10.

For TAK-779, the oral bioavailability ([4]; po) is given as “poor oral bioavailability”, the local tolerability [4] is given as “local injection site irritation” and the “inhibition of HIV-1 pseudovirus entry” value [1] is given as “Neither TAK-779 nor RANTES mediated consistent, high-level inhibition”.

In the case of CCCCOCCOc1ccc(-c2ccc3c(c2)/C=C(/C(=O)Nc2ccc([S@@+]([O-])Cc4cncn4CCC)cc2)CCCN3CC(C)C)cc1.CS(=O)(=O)O [TAK-652], the safety and tolerability [5] is listed as “safe and well tolerated”.

In the case of “RANTES: CC-chemokine, natural peptide ligand of CCR5, purchased from R&D Systems”, the “inhibition of HIV-1 pseudovirus entry” value [1] is reported as “Neither TAK-779 nor RANTES mediated consistent, high-level inhibition”, the “Mean Dose Reduction (2D7)” value [6] is reported as 1.94 ± 0.08 and the “Mean Dose Reduction (Cpd in combination)” value [6] is reported as 10.18 ± 1.86.
